In US9765039B2, “Biaryl derivatives as bromodomain inhibitors” (Zenith Epigenetics Ltd., priority 2012, dated 2017):
One block for each molecule: values may come before it.

Tests used:
Brd4 bromodomain 1 = molecular target: T1, Brd4 bromodomain 1 (Homo sapiens, UniProt O60885); assay: Inhibition of tetra-acetylated histone H4 binding to BET bromodomains (TR-FRET); design: key: Active: Compounds with an IC50 value less than 30 μM were deemed to be active.; Not Active: Compounds with an IC50 value less than 30 μM were deemed to be active; settings: first bromodomain of Brd4, tetra-acetylated histone H4 peptide
T1 construct: made in house; host or cells: E. coli BL21(DE3)
In short: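 TR-FRET with N-terminally His-tagged bromodomains (200 nM, E. coli-expressed, Ni affinity and SEC-purified) and biotinylated tetra-acetylated histone H4 peptide (25–50 nM), detected with Eu-cryptate streptavidin and XL665 anti-His antibody. Buffer 30 mM HEPES pH 7.4, 320 mM KF, 0.08% BSA, 0.2% DMSO; 2 h RT. IC50 from decrease in 665/620 nm ratio.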

hIL-6 mRNA = assay: Inhibition of hIL-6 mRNA transcription in LPS-stimulated U937 macrophages; assay type: cell-based, human; design: key: Active: Compounds with an IC50 value less than 30 μM are deemed to be active; settings: U937 differentiated into macrophages, 1 h pretreatment, lipopolysaccharide 3 h
In short: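 U937 cells differentiated 3 days with 60 ng/mL PMA, pretreated 1 h with compound, then stimulated with […] E. coli LPS for 3 h at 37° C. hIL-6 mRNA quantified by one-step real-time RT-PCR, Ct normalised to internal control and expressed as fold induction relative to control.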

hApoA-1 mRNA = assay: Up-regulation of hApoA-1 mRNA transcription in Huh7 cells; assay type: cell-based, human; design: key: Active: Compounds with an EC170 value less than 30 μM are deemed to be active.; Not Active: Compounds with an EC170 value less than 30 μM are deemed to be active; settings: 48 hrs treatment, ApoA-I mRNA
Description: In this example, ApoA-I mRNA in tissue culture cells was quantitated to measure the transcriptional up-regulation of ApoA-I when treated with a compound of the present disclosure.
Huh7 cells ([…] per well) were plated in a 96-well plate using 100 μL DMEM per well, (Gibco DMEM supplemented with penicillin/streptomycin and 10% FBS), 24 h before the addition of the compound of interest. After 48 hrs treatment, the spent media was removed from the Huh-7 cells and placed on ice (for immediate use) or at −80° C. (for future use) with the “LDH cytotoxicity assay Kit II” from Abcam. The cells remaining in the plate were rinsed with 100 μL PBS.
Then 85 μL of cell lysis solution was added to each well and incubated for 5-10 minutes at room temperature, to allow for complete cell lysis and detachment. mRNA was then prepared using the “mRNA Catcher PLUS plate” from Life Technologies, according to the protocol supplied. After the last wash, as much wash buffer as possible was aspirated without allowing the wells to dry. Elution Buffer (E3, 80 μL) was then added to each well. mRNA was then eluted by incubating the mRNA Catcher PLUS plate with Elution Buffer for 5 minutes at 68° C., and then 1 minute at 4° C. Catcher plates with mRNA eluted were kept on ice for use or stored at −80° C.
The eluted mRNA isolated was then used in a one-step real-time PCR reaction, using components of the Ultra Sense Kit together with Life Technologies primer-probe mixes. Real-time PCR data was analyzed, using the Ct values, to determine the fold induction of each unknown sample, relative to the control (that is, relative to the control for each independent DMSO concentration).
Compounds with an EC170 value less than 30 μM are deemed to be active.

Human AML MV-4-11 cells = assay: Inhibition of cell proliferation in cancer cell lines (CellTiter Aqueous One); assay type: cell-based; design: key: Active: Compounds with an IC50 value less than 30 μM were deemed to be active.; Not Active: Compounds with an IC50 value less than 30 μM were deemed to be active; settings: 72 hours
In short: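 Exponentially growing MV-4-11 cells were treated immediately with two-fold compound dilutions from 30 µM to 0.2 µM in triplicate for 72 h at 37 °C. Viability was read by MTS (CellTiter Aqueous One) absorbance at 490 nm after 3-4 h; % proliferation vs DMSO gave IC50.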

c-myc = assay: Inhibition of c-myc expression in cancer cell lines (mRNA, real-time PCR); assay type: cell-based; design: key: Active: Compounds with an IC50 value less than 30 μM were deemed to be active; settings: Human AML MV4-11 cells, 3 hours
In short: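 MV4-11 cells (2.5×10^4) exposed to compound or 0.1% DMSO for 3 h at 37° C, then lysed for mRNA isolation. c-myc and cyclophilin cDNAs co-amplified by duplex RT real-time PCR. IC50 from dose-response curve.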

SMILES: COc1cc(OC)c2c(=O)[nH]c(-c3cccc(-c4ccc(C(=O)N(C)C)cc4)n3)nc2c1 [Example 20, 4-(6-(5,7-Dimethoxy-4-oxo-3,4-dihydroquinazolin-2-yl)pyridin-2-yl)-N,N-dimethylbenzamide]
FRET activity (IC50 < 30 μM) (Brd4 bromodomain 1): Active
IL-6 activity (IC50 < 30 μM) (hIL-6 mRNA): Active
ApoA-1 Activity (EC170 < 30 μM) (hApoA-1 mRNA): Active
cell proliferation activity (IC50 < 30 μM) (Human AML MV-4-11 cells): Not Active
c-myc activity (IC50 < 30 μM) (c-myc): Active
melting point: 217 to 219 °C

SMILES: COc1cc(OC)c2c(=O)[nH]c(-c3ccc(OCCO)c(-c4ccc([S+](C)[O-])cc4)n3)nc2c1 (stereo not drawn) [Example 38, 2-(5-(2-Hydroxyethoxy)-6-(4-(methylsulfinyl)phenyl)pyridin-2-yl)-5,7-dimethoxyquinazolin-4(3H)-one]
FRET activity (IC50 < 30 μM) (Brd4 bromodomain 1): Active
IL-6 activity (IC50 < 30 μM) (hIL-6 mRNA): Active
ApoA-1 Activity (EC170 < 30 μM) (hApoA-1 mRNA): Active
cell proliferation activity (IC50 < 30 μM) (Human AML MV-4-11 cells): Active
c-myc activity (IC50 < 30 μM) (c-myc): Active
melting point: 281 to 282 °C

SMILES: COc1cc(OC)c2c(=O)[nH]c(-c3ccc(OC)c(-c4ccc(C(=O)N(C)C)cc4Cl)c3)nc2c1 [Example 59, 2-Chloro-5′-(5,7-dimethoxy-4-oxo-3,4-dihydroquinazolin-2-yl)-2′-methoxy-N,N-dimethyl-[1,1′-biphenyl]-4-carboxamide]
FRET activity (IC50 < 30 μM) (Brd4 bromodomain 1): Active
IL-6 activity (IC50 < 30 μM) (hIL-6 mRNA): Active
ApoA-1 Activity (EC170 < 30 μM) (hApoA-1 mRNA): Active
cell proliferation activity (IC50 < 30 μM) (Human AML MV-4-11 cells): Not Active
c-myc activity (IC50 < 30 μM) (c-myc): Active
melting point: > 300 °C

SMILES: COc1cc(OC)c2c(=O)[nH]c(-c3ccc(OCCN(C(=O)OC(C)(C)C)C(C)C)c(-c4ccc([S+](C)[O-])cc4)n3)nc2c1 (stereo not drawn) [Example 53, tert-Butyl (2-((6-(5,7-dimethoxy-4-oxo-3,4-dihydroquinazolin-2-yl)-2-(4-(methylsulfinyl)phenyl)pyridin-3-yl)oxy)ethyl)(isopropyl)carbamate]
FRET activity (IC50 < 30 μM) (Brd4 bromodomain 1): Active
IL-6 activity (IC50 < 30 μM) (hIL-6 mRNA): Not Active
ApoA-1 Activity (EC170 < 30 μM) (hApoA-1 mRNA): Active
cell proliferation activity (IC50 < 30 μM) (Human AML MV-4-11 cells): Not Active
c-myc activity (IC50 < 30 μM) (c-myc): Not Active
melting point: 114 to 116 °C

SMILES: COc1cc(OC)c2c(=O)[nH]c(-c3cccc(-c4ccc([S+](C)[O-])cc4)n3)nc2c1 (stereo not drawn) [Example 49, 5,7-Dimethoxy-2-(6-(4-(methylsulfinyl)phenyl)pyridin-2-yl)quinazolin-4(3H)-one]
FRET activity (IC50 < 30 μM) (Brd4 bromodomain 1): Active
IL-6 activity (IC50 < 30 μM) (hIL-6 mRNA): Active
ApoA-1 Activity (EC170 < 30 μM) (hApoA-1 mRNA): Active
cell proliferation activity (IC50 < 30 μM) (Human AML MV-4-11 cells): Active
c-myc activity (IC50 < 30 μM) (c-myc): Not Active
melting point: 281 to 282 °C

Further lines, with some results ahead:

FRET activity (IC50 < 30 μM) (Brd4 bromodomain 1): Active
IL-6 activity (IC50 < 30 μM) (hIL-6 mRNA): Active
cell proliferation activity (IC50 < 30 μM) (Human AML MV-4-11 cells): Active
c-myc activity (IC50 < 30 μM) (c-myc): Active
melting point: 156 to 157 °C
SMILES: COc1cc(OC)c2c(=O)[nH]c(-c3ccc(OCCNC(C)C)c(-c4cccc([S+](C)[O-])c4)n3)nc2c1 (stereo not drawn) [Example 40, 2-(5-(2-(Isopropylamino)ethoxy)-6-(3-(methylsulfinyl)phenyl)pyridin-2-yl)-5,7-dimethoxyquinazolin-4(3H)-one]
ApoA-1 Activity (EC170 < 30 μM) (hApoA-1 mRNA): Active

FRET activity (IC50 < 30 μM) (Brd4 bromodomain 1): Active
IL-6 activity (IC50 < 30 μM) (hIL-6 mRNA): Active
cell proliferation activity (IC50 < 30 μM) (Human AML MV-4-11 cells): Active
c-myc activity (IC50 < 30 μM) (c-myc): Active
melting point: 199 to 201 °C
SMILES: COc1cc(OC)c2c(=O)[nH]c(-c3ccc(OCCNC(C)C)c(-c4ccc(S(C)(=O)=O)cc4C(F)(F)F)n3)nc2c1 [Example 46, 2-(5-(2-(Isopropylamino)ethoxy)-6-(4-(methylsulfonyl)-2-(trifluoromethyl)phenyl)pyridin-2-yl)-5,7-dimethoxyquinazolin-4(3H)-one]
ApoA-1 Activity (EC170 < 30 μM) (hApoA-1 mRNA): Active

FRET activity (IC50 < 30 μM) (Brd4 bromodomain 1): Active
IL-6 activity (IC50 < 30 μM) (hIL-6 mRNA): Active
cell proliferation activity (IC50 < 30 μM) (Human AML MV-4-11 cells): Active
c-myc activity (IC50 < 30 μM) (c-myc): Active
melting point: 214 to 215 °C
SMILES: COc1cc(OC)c2c(=O)[nH]c(-c3ccc(OCCNC(C)C)c(-c4ccc(C(=O)N(C)C)cc4)n3)nc2c1 [Example 26, 4-(6-(5,7-Dimethoxy-4-oxo-3,4-dihydroquinazolin-2-yl)-3-(2-(isopropylamino)ethoxy)pyridin-2-yl)-N,N-dimethylbenzamide]
ApoA-1 Activity (EC170 < 30 μM) (hApoA-1 mRNA): Active

FRET activity (IC50 < 30 μM) (Brd4 bromodomain 1): Active
IL-6 activity (IC50 < 30 μM) (hIL-6 mRNA): Active
cell proliferation activity (IC50 < 30 μM) (Human AML MV-4-11 cells): Not Active
c-myc activity (IC50 < 30 μM) (c-myc): Active
melting point: 272 to 273 °C
SMILES: COc1cc(OC)c2c(=O)[nH]c(-c3ccc(OCCO)c(-c4cccc([S+](C)[O-])c4)n3)nc2c1 (stereo not drawn) [Example 37, 2-(5-(2-Hydroxyethoxy)-6-(3-(methylsulfinyl)phenyl)pyridin-2-yl)-5,7-dimethoxyquinazolin-4(3H)-one]
ApoA-1 Activity (EC170 < 30 μM) (hApoA-1 mRNA): Active

FRET activity (IC50 < 30 μM) (Brd4 bromodomain 1): Active
IL-6 activity (IC50 < 30 μM) (hIL-6 mRNA): Active
cell proliferation activity (IC50 < 30 μM) (Human AML MV-4-11 cells): Active
c-myc activity (IC50 < 30 μM) (c-myc): Active
melting point: 211 to 213 °C
SMILES: COc1cc(OC)c2c(=O)[nH]c(-c3ccc(OCCN4CCCC4)c(-c4ccc(S(C)(=O)=O)cc4)n3)nc2c1.Cl [Example 29, 5,7-Dimethoxy-2-(6-(4-(methylsulfonyl)phenyl)-5-(2-(pyrrolidin-1-yl)ethoxy)pyridin-2-yl)quinazolin-4(3H)-one hydrochloride]
ApoA-1 Activity (EC170 < 30 μM) (hApoA-1 mRNA): Active

FRET activity (IC50 < 30 μM) (Brd4 bromodomain 1): Active
IL-6 activity (IC50 < 30 μM) (hIL-6 mRNA): Active
cell proliferation activity (IC50 < 30 μM) (Human AML MV-4-11 cells): Active
c-myc activity (IC50 < 30 μM) (c-myc): Active
melting point: 202 to 203 °C
SMILES: COc1cc(OC)c2c(=O)[nH]c(-c3ccc(OCCNC(C)C)c(-c4ccc(S(C)(=O)=O)cc4C)n3)nc2c1 [Example 45, 2-(5-(2-(Isopropylamino)ethoxy)-6-(2-methyl-4-(methylsulfonyl)phenyl)pyridin-2-yl)-5,7-dimethoxyquinazolin-4(3H)-one]
ApoA-1 Activity (EC170 < 30 μM) (hApoA-1 mRNA): Active

FRET activity (IC50 < 30 μM) (Brd4 bromodomain 1): Active
IL-6 activity (IC50 < 30 μM) (hIL-6 mRNA): Not Active
cell proliferation activity (IC50 < 30 μM) (Human AML MV-4-11 cells): Active
c-myc activity (IC50 < 30 μM) (c-myc): Active
melting point: 204 to 205 °C
SMILES: COc1ccc2c(=O)[nH]c(-c3ccc(OCCNC(C)C)c(-c4ccc(S(C)(=O)=O)cc4)n3)nc2c1 [Example 67]
ApoA-1 Activity (EC170 < 30 μM) (hApoA-1 mRNA): Active
